Measured values taken from patent US4731451A, “N-((2-oxo-3(2H)benzothiazolyl)methyl)-2-chloroacetanilides” (Monsanto Company, priority 1980, dated 1988).

Legend:
Format in all cases: in vivo
[1] = system: Johnsongrass; experiment: Pre-emergent herbicidal activity (Table II); details: 2-3 weeks
Method: (§1) The pre-emergence tests are conducted as follows:
(§2) A good grade of top soil is placed in aluminum pans and compacted to a depth of three-eighths to one-half inch from the top of the pan. On the top of the soil is placed a predetermined number of seeds or vegetative propagules of various plant species. The soil required to level fill the pans after seeding or adding vegetative propagules is weighed into a pan. A known amount of the active ingredient applied in a solvent or as a wettable powder suspension and the soil are thoroughly mixed, and used as a cover layer for prepared pans. After treatment, the pans are moved into a greenhouse bench where they are watered from below as needed to give adequate moisture for germination and growth.
(§3) Approximately 2-3 weeks after seeding and treating, the plants are observed and the results recorded. The herbicidal rating is obtained by means of fixed scale based on the percent injury of each plant species. The ratings are defined as follows: […]
(§4) The plant species utilized in one set of tests, the data for which are shown in Table II, are identified by letter in accordance with the following legend: […]

[2] = system: Velvetleaf; experiment: Pre-emergent herbicidal activity (Table II); details: 2-3 weeks
Method: as §1, §2, §3, §4

[3] = system: Cocklebur; experiment: Pre-emergent herbicidal activity (Table II); details: 2-3 weeks
Method: as §1, §2, §3, §4

[4] = system: Morningglory; experiment: Pre-emergent herbicidal activity (Table II); details: 2-3 weeks
Method: as §1, §2, §3, §4

[5] = system: Quackgrass; experiment: Pre-emergent herbicidal activity (Table II); details: 2-3 weeks
Method: as §1, §2, §3, §4

[6] = system: Canada Thistle; experiment: Pre-emergent herbicidal activity (Table II); details: 2-3 weeks
Method: as §1, §2, §3, §4

[7] = system: Downy Brome; experiment: Pre-emergent herbicidal activity (Table II); details: 2-3 weeks
Method: as §1, §2, §3, §4

[8] = system: Barnyardgrass; experiment: Pre-emergent herbicidal activity (Table II); details: 2-3 weeks
Method: as §1, §2, §3, §4

[9] = system: Lambsquarters; experiment: Pre-emergent herbicidal activity (Table II); details: 2-3 weeks
Method: as §1, §2, §3, §4

[10] = system: Yellow Nutsedge; experiment: Pre-emergent herbicidal activity (Table II); details: 2-3 weeks
Method: as §1, §2, §3, §4

[11] = system: Smartweed; experiment: Pre-emergent herbicidal activity (Table II); details: 2-3 weeks
Method: as §1, §2, §3, §4

[12] = system: Soybean; experiment: Pre-emergent herbicidal activity (Table III)
Method: as §1, §2, §3
(§5) The compounds were further tested by utilizing the above procedure on the following plant species: […]

[13] = system: Velvetleaf; experiment: Pre-emergent herbicidal activity (Table III)
Method: as §1, §2, §3, §5

[14] = system: Cocklebur; experiment: Pre-emergent herbicidal activity (Table III)
Method: as §1, §2, §3, §5

[15] = system: Rice; experiment: Pre-emergent herbicidal activity (Table III)
Method: as §1, §2, §3, §5

[16] = system: Wheat; experiment: Pre-emergent herbicidal activity (Table III)
Method: as §1, §2, §3, §5

[17] = system: Morningglory; experiment: Pre-emergent herbicidal activity (Table III)
Method: as §1, §2, §3, §5

[18] = system: Downy Brome; experiment: Pre-emergent herbicidal activity (Table III)
Method: as §1, §2, §3, §5

[19] = system: Sugarbeet; experiment: Pre-emergent herbicidal activity (Table III)
Method: as §1, §2, §3, §5

[20] = system: Barnyardgrass; experiment: Pre-emergent herbicidal activity (Table III)
Method: as §1, §2, §3, §5

[21] = system: Panicum; experiment: Pre-emergent herbicidal activity (Table III)
Method: as §1, §2, §3, §5

[22] = system: Lambsquarters; experiment: Pre-emergent herbicidal activity (Table III)
Method: as §1, §2, §3, §5

[23] = system: Wild Buckwheat; experiment: Pre-emergent herbicidal activity (Table III)
Method: as §1, §2, §3, §5

[24] = system: Crabgrass; experiment: Pre-emergent herbicidal activity (Table III)
Method: as §1, §2, §3, §5

[25] = system: Hemp Sesbania; experiment: Pre-emergent herbicidal activity (Table III)
Method: as §1, §2, §3, §5

[26] = system: Sorghum; experiment: Pre-emergent herbicidal activity (Table III)
Method: as §1, §2, §3, §5

[27] = system: Smartweed; experiment: Pre-emergent herbicidal activity (Table III)
Method: as §1, §2, §3, §5
Further: ranges in brackets are in %.

In the case of `CC1=C(N(Cn2c(=O)sc3ccc(Cl)cc32)C(=O)CCl)C(C)CCC1` (stereo not shown) [Example 6, N--[(5-chloro-2-oxo-3(2H)--benzothiazolyl)methyl]-N--(2,6-dimethyl-1-cyclohexen-1-yl)-2-chloroacetamide], the Herbicidal rating ([1]; 5.6 kg/ha) is reported as 0 (0-24), the Herbicidal rating ([1]; 11.2 kg/ha) is reported as 0 (0-24) and the Herbicidal rating ([2]; 5.6 kg/ha) is reported as 0 (0-24). For the same compound, the Herbicidal rating ([2]; 11.2 kg/ha) was 0 (0-24), the Herbicidal rating ([3]; 5.6 kg/ha) was 0 (0-24) and the Herbicidal rating ([3]; 11.2 kg/ha) was 0 (0-24). The Herbicidal rating ([4]; 5.6 kg/ha) was 0 (0-24), the Herbicidal rating ([4]; 11.2 kg/ha) was 0 (0-24) and the Herbicidal rating ([5]; 5.6 kg/ha) was 0 (0-24). The Herbicidal rating ([5]; 11.2 kg/ha) was 1 (25-49), the Herbicidal rating ([6]; 5.6 kg/ha) was 0 (0-24) and the Herbicidal rating ([6]; 11.2 kg/ha) was 1 (25-49). The Herbicidal rating ([7]; 5.6 kg/ha) was 0 (0-24), the Herbicidal rating ([7]; 11.2 kg/ha) was 0 (0-24) and the Herbicidal rating ([8]; 5.6 kg/ha) was 1 (25-49). For the same compound, the Herbicidal rating ([8]; 11.2 kg/ha) was 3 (75-100), the Herbicidal rating ([9]; 5.6 kg/ha) was 0 (0-24) and the Herbicidal rating ([9]; 11.2 kg/ha) was 3 (75-100). For the same compound, the Herbicidal rating ([10]; 5.6 kg/ha) was 0 (0-24), the Herbicidal rating ([10]; 11.2 kg/ha) was 0 (0-24) and the Herbicidal rating ([11]; 5.6 kg/ha) was 0 (0-24). The Herbicidal rating ([11]; 11.2 kg/ha) was 0 (0-24), the Herbicidal rating ([12]; 1.12 kg/ha) was 0 (0-24) and the Herbicidal rating ([12]; 5.6 kg/ha) was 0 (0-24). For the same compound, the Herbicidal rating ([13]; 1.12 kg/ha) was 0 (0-24), the Herbicidal rating ([13]; 5.6 kg/ha) was 0 (0-24) and the Herbicidal rating ([14]; 1.12 kg/ha) was 0 (0-24). For the same compound, the Herbicidal rating ([14]; 5.6 kg/ha) was 0 (0-24), the Herbicidal rating ([15]; 1.12 kg/ha) was 1 (25-49) and the Herbicidal rating ([15]; 5.6 kg/ha) was 0 (0-24). The Herbicidal rating ([16]; 1.12 kg/ha) was 0 (0-24), the Herbicidal rating ([16]; 5.6 kg/ha) was 0 (0-24) and the Herbicidal rating ([17]; 1.12 kg/ha) was 0 (0-24). The Herbicidal rating ([17]; 5.6 kg/ha) was 0 (0-24), the Herbicidal rating ([18]; 1.12 kg/ha) was 0 (0-24) and the Herbicidal rating ([18]; 5.6 kg/ha) was 0 (0-24). The Herbicidal rating ([19]; 1.12 kg/ha) was 1 (25-49), the Herbicidal rating ([19]; 5.6 kg/ha) was 1 (25-49) and the Herbicidal rating ([20]; 1.12 kg/ha) was 0 (0-24). For the same compound, the Herbicidal rating ([20]; 5.6 kg/ha) was 1 (25-49), the Herbicidal rating ([21]; 1.12 kg/ha) was 0 (0-24) and the Herbicidal rating ([21]; 5.6 kg/ha) was 0 (0-24). For the same compound, the Herbicidal rating ([22]; 1.12 kg/ha) was 3 (75-100), the Herbicidal rating ([22]; 5.6 kg/ha) was 1 (25-49) and the Herbicidal rating ([23]; 1.12 kg/ha) was 0 (0-24). For the same compound, the Herbicidal rating ([23]; 5.6 kg/ha) was 0 (0-24), the Herbicidal rating ([24]; 1.12 kg/ha) was 2 (50-74) and the Herbicidal rating ([24]; 5.6 kg/ha) was 3 (75-100). The Herbicidal rating ([25]; 1.12 kg/ha) was 3 (75-100), the Herbicidal rating ([25]; 5.6 kg/ha) was 3 (75-100) and the Herbicidal rating ([26]; 1.12 kg/ha) was 0 (0-24). The Herbicidal rating ([26]; 5.6 kg/ha) was 0 (0-24), the Herbicidal rating ([27]; 1.12 kg/ha) was 2 (50-74) and the Herbicidal rating ([27]; 5.6 kg/ha) was 1 (25-49).

In the case of `CC1=C(N(Cn2c(=O)sc3ccccc32)C(=O)CCl)C(C)CCC1` (stereo not shown) [Example 9, N--[(2-oxo-3(2H)--benzothiazolyl)methyl]-N--(2,6-dimethyl-1-cyclohexen-1-yl)-2-chloroamide], the Herbicidal rating ([1]; 5.6 kg/ha) is reported as 0 (0-24), the Herbicidal rating ([1]; 11.2 kg/ha) is reported as 0 (0-24) and the Herbicidal rating ([2]; 5.6 kg/ha) is reported as 0 (0-24). For the same compound, the Herbicidal rating ([2]; 11.2 kg/ha) was 0 (0-24), the Herbicidal rating ([3]; 5.6 kg/ha) was 0 (0-24) and the Herbicidal rating ([3]; 11.2 kg/ha) was 0 (0-24). The Herbicidal rating ([4]; 5.6 kg/ha) was 0 (0-24), the Herbicidal rating ([4]; 11.2 kg/ha) was 0 (0-24) and the Herbicidal rating ([5]; 5.6 kg/ha) was 0 (0-24). The Herbicidal rating ([5]; 11.2 kg/ha) was 1 (25-49), the Herbicidal rating ([6]; 5.6 kg/ha) was 0 (0-24) and the Herbicidal rating ([6]; 11.2 kg/ha) was 0 (0-24). The Herbicidal rating ([7]; 5.6 kg/ha) was 0 (0-24), the Herbicidal rating ([7]; 11.2 kg/ha) was 2 (50-74) and the Herbicidal rating ([8]; 5.6 kg/ha) was 3 (75-100). The Herbicidal rating ([8]; 11.2 kg/ha) was 3 (75-100), the Herbicidal rating ([9]; 5.6 kg/ha) was 1 (25-49) and the Herbicidal rating ([9]; 11.2 kg/ha) was 1 (25-49). The Herbicidal rating ([10]; 5.6 kg/ha) was 0 (0-24), the Herbicidal rating ([10]; 11.2 kg/ha) was 0 (0-24) and the Herbicidal rating ([11]; 5.6 kg/ha) was 0 (0-24). For the same compound, the Herbicidal rating ([11]; 11.2 kg/ha) was 3 (75-100), the Herbicidal rating ([12]; 0.26 kg/ha) was 0 (0-24) and the Herbicidal rating ([12]; 1.12 kg/ha) was 0 (0-24). The Herbicidal rating ([12]; 5.6 kg/ha) was 0 (0-24), the Herbicidal rating ([13]; 0.26 kg/ha) was 0 (0-24) and the Herbicidal rating ([13]; 1.12 kg/ha) was 0 (0-24). For the same compound, the Herbicidal rating ([13]; 5.6 kg/ha) was 0 (0-24), the Herbicidal rating ([14]; 0.26 kg/ha) was 0 (0-24) and the Herbicidal rating ([14]; 1.12 kg/ha) was 0 (0-24). The Herbicidal rating ([15]; 0.26 kg/ha) was 0 (0-24), the Herbicidal rating ([15]; 1.12 kg/ha) was 2 (50-74) and the Herbicidal rating ([15]; 5.6 kg/ha) was 2 (50-74). For the same compound, the Herbicidal rating ([16]; 0.26 kg/ha) was 0 (0-24), the Herbicidal rating ([16]; 1.12 kg/ha) was 0 (0-24) and the Herbicidal rating ([16]; 5.6 kg/ha) was 2 (50-74). For the same compound, the Herbicidal rating ([17]; 1.12 kg/ha) was 0 (0-24), the Herbicidal rating ([17]; 5.6 kg/ha) was 0 (0-24) and the Herbicidal rating ([18]; 0.26 kg/ha) was 0 (0-24). For the same compound, the Herbicidal rating ([18]; 1.12 kg/ha) was 0 (0-24), the Herbicidal rating ([18]; 5.6 kg/ha) was 2 (50-74) and the Herbicidal rating ([19]; 0.26 kg/ha) was 0 (0-24). The Herbicidal rating ([19]; 1.12 kg/ha) was 0 (0-24), the Herbicidal rating ([19]; 5.6 kg/ha) was 1 (25-49) and the Herbicidal rating ([20]; 0.26 kg/ha) was 2 (50-74). For the same compound, the Herbicidal rating ([20]; 1.12 kg/ha) was 3 (75-100), the Herbicidal rating ([20]; 5.6 kg/ha) was 3 (75-100) and the Herbicidal rating ([21]; 0.26 kg/ha) was 0 (0-24). The Herbicidal rating ([21]; 1.12 kg/ha) was 0 (0-24), the Herbicidal rating ([21]; 5.6 kg/ha) was 3 (75-100) and the Herbicidal rating ([22]; 0.26 kg/ha) was 0 (0-24). For the same compound, the Herbicidal rating ([22]; 1.12 kg/ha) was 0 (0-24), the Herbicidal rating ([22]; 5.6 kg/ha) was 1 (25-49) and the Herbicidal rating ([23]; 0.26 kg/ha) was 0 (0-24). The Herbicidal rating ([23]; 1.12 kg/ha) was 0 (0-24), the Herbicidal rating ([23]; 5.6 kg/ha) was 0 (0-24) and the Herbicidal rating ([24]; 0.26 kg/ha) was 1 (25-49). For the same compound, the Herbicidal rating ([24]; 1.12 kg/ha) was 2 (50-74), the Herbicidal rating ([24]; 5.6 kg/ha) was 3 (75-100) and the Herbicidal rating ([25]; 1.12 kg/ha) was 0 (0-24). For the same compound, the Herbicidal rating ([25]; 5.6 kg/ha) was 0 (0-24), the Herbicidal rating ([26]; 0.26 kg/ha) was 0 (0-24) and the Herbicidal rating ([26]; 1.12 kg/ha) was 0 (0-24). The Herbicidal rating ([26]; 5.6 kg/ha) was 2 (50-74), the Herbicidal rating ([27]; 0.26 kg/ha) was 0 (0-24) and the Herbicidal rating ([27]; 1.12 kg/ha) was 0 (0-24). For the same compound, the Herbicidal rating ([27]; 5.6 kg/ha) was 1 (25-49).
